Experimental data: US8586369B2, “Ion channel-forming peptides” (The Regents of the University of California, priority 2007, dated 2013)

Experiments:
Assay type in all cases: biochemical
[1] = Single-channel conductance in bilayers with positively-charged headgroups (10% DODAP, 90% DiPhyPC); settings: 20 mM KCl
Procedure: The conductance of gA-gA and 2-2 in lipid bilayers that contained 10% of a lipid with positively-charged headgroups (here, 1,2-dioleoyl-3-(dimethylamino)propane, DODAP, and 90% DiPhyPC) was measured.
Formation of planar lipid bilayers: We formed most planar lipid bilayers with the “folding technique.” We used a Teflon film (Eastern Scientific Inc, pore diameter 0.18-0.25 mm) was pretreated on each side with 2.5 μL of 5% hexadecane in pentane and air dried. This film was mounted using vacuum grease (Dow Corning, High vacuum grease) to a custom made Teflon chamber separating two buffer compartments each with a volume capacity of 4 mL. […]
Ion channel measurements: We performed single channel recordings in “voltage clamp mode” using Ag/AgCl electrodes (Warner Instruments) in each compartment of the bilayer chambers. […] The current traces we used to generate all data that was recorded at applied potentials s 50 mV were filtered at 10 Hz. […]

[2] = Single-channel conductance in negatively charged planar bilayers (50% POPE, 50% DOPS); settings: 0.01 M KCl, 0.1 mM HEPES pH 7.4
Description: The data acquisition boards for both amplifiers were set to a sampling frequency of 15 kHz.

[3] = Single-channel conductance of homodimeric gA pores in planar lipid bilayers made from DiPhyPC (Example 1); settings: 20 mM KCl plus 10 mM KOH
[4] = as above; settings: for Single-channel conductance γ: HEPES pH 7.4, DiPhyPC bilayers, slope of I-V curves; for γ-ratio to gA-gA: pH 7.4, DiPhyPC
Procedure: Formation of planar lipid bilayers: We formed most planar lipid bilayers with the “folding technique.” We used a Teflon film (Eastern Scientific Inc, pore diameter 0.18-0.25 mm) was pretreated on each side with 2.5 μL of 5% hexadecane in pentane and air dried. This film was mounted using vacuum grease (Dow Corning, High vacuum grease) to a custom made Teflon chamber separating two buffer compartments each with a volume capacity of 4 mL. After adding 1 mL of electrolyte (0.01 M to 1.00 M KCl buffered with HEPES pH 7.4) to each compartment, lipids were spread from a solution in pentane onto the surface of the electrolyte solutions (specifically, 4-6 μL from 25 mg mL-l solution DiPhyPC or from 6.25 mg mL-l each of 50% DOPS and 50% POPE or from 25 mg mL-l DODAP mixed with 25 mg mL-l DiPhyPC in a 1:9 ratio. Three additional milliliters of electrolyte solution were added to each side of the chamber to raise the liquid levels above the aperture. We formed the bilayers from apposition of two monolayers of lipids using the method described by Montal et al. (Proc. Natl. Acad. Sci. U.S.A. 1972, 69, 3561-3566). Briefly, bilayers were obtained by consecutively raising the liquid level in each compartment until the pore was completely covered by electrolyte. If at this point the pore was not closed by a lipid bilayer, then the liquid level in one or both compartments was lowered below the pore level by aspirating electrolyte into a 3 mL syringe, followed by raising the electrolyte solution again.
Planar lipid bilayers were also made with the “painting technique”. We pretreated each side of a pore in a bilayer cup (Warner Instruments, Delrin perfusion cup, volume 1 mL, pore diameter 250 μm) with ˜2 μL of a 25 mg mL-l solution of DiPhyPC in hexane. After adding recording buffer (0.01 M KCl to 1.00 M KCl buffered with HEPES, pH=7.4) to both compartments of the bilayer setup, we “painted” a solution of 20 mg mL-l DiPhyPC in n-decane over the pore by using a paint brush with a fine tip. We followed the thinning of the decane droplet to form a planar bilayer by monitoring the capacitance of the bilayer. After verifying that bilayers were stable for several minutes (in the range of ±200 mV applied voltage) and that the capacitances were above 80-90 pF, gA was added (4-8 μL from 1 ng mL-l in ethanol), derivatives 1 or 2 (2-10 μL from 100 ng mL-l in ethanol), or derivative 3 (4-10 μL from 100 ng mL-l in ethanol) directly to the bilayer chambers.
Ion channel measurements: We performed single channel recordings in “voltage clamp mode” using Ag/AgCl electrodes (Warner Instruments) in each compartment of the bilayer chambers. Data acquisition and storage was carried out using custom software in combination with either an EPC-7 patch clamp amplifier from List Medical Electronic (set at a gain of 100 mV pA-1 and a filter cutoff frequency of 3 kHz) or a Geneclamp 500 amplifier from Axon Instruments (with a CV-5B 100GU headstage, set at a gain of 100 mV pA-1 and filter cutoff frequency of 1 kHz). We used the EPC-7 amplifier for most folded bilayers and the Geneclamp 500 amplifier for most painted bilayers. The data acquisition boards for both amplifiers were set to a sampling frequency of 15 kHz. All current traces shown in the figures were further filtered using a digital Gaussian low-pass filter with a cutoff frequency of 30 Hz. The current traces we used to generate all data that was recorded at applied potentials s 50 mV were filtered at 10 Hz.
We performed the analysis of the single channel current traces by computing histograms of the currents from the original current-time traces with ClampFit 9.2 software from Axon Instruments. From these histograms we extracted the main current values by fitting a Gaussian function to the peaks in the histograms. […] Single channel conductances reported in this paper always refer to the main conductance state (i.e. to the dominant peaks in the current histograms).

Substance: taurinyl gramicidate [compound 2]
- increase of the relative ratio of conductance of 2-2 to gA-gA versus purely zwitterionic lipids [1]: 10%
- Single-channel conductance γ in negatively charged bilayers [2]: 24.4±0.5 pS
- conductance compared with gA-gA at pH 12 ([3]; DiPhyPC): significantly larger
- γ at pH 12 ([3]; DiPhyPC bilayers, homodimers): 9.8 ± 0.2 pS
- Single-channel conductance γ ([4]; 0.01 M KCl, homodimers): 4.3 ± 0.3 pS
- ratio between the conductance of 2-2 and gA-gA ([4]; 0.02 M KCl, 100 mV applied potential): 1.4
- ratio between the conductance of 2-2 and gA-gA ([4]; 0.02 M KCl, 200 mV applied potential): 1.5
- conductance compared with gA-gA at pH 7.4 ([4]; 20 mM KCl, DiPhyPC): significantly larger
- γ at pH 7.4 ([4]; 20 mM KCl, DiPhyPC bilayers, homodimers): 5.8 ± 0.1 pS
- overall conductance of heterodimeric pore of gA and 2, with 2 at the entrance of the pore ([4]; 0.02 M KCl, DiPhyPC, transmembrane potentials above 100 mV): approximately the same as that of homodimeric pores from 2
- Single-channel conductance γ ([4]; 0.10 M KCl, homodimers): 12.6 ± 0.4 pS
- γ-ratio to gA-gA ([4]; 0.10 M KCl): 1.2
- Single-channel conductance γ ([4]; 1.00 M KCl, homodimers): 21.5 ± 0.3 pS
- γ-ratio to gA-gA ([4]; 1.00 M KCl): 1.1
- current as share of the estimated maximum, mass transport limited current (3 pA) ([4]; 200 mV applied potential, 0.02 M KCl): ~30%
- difference in single channel conductance compared to gA ([4]; approximately 1.00 M KCl): < 10%
